Activity calls are given as the source filed them. The calls are words filed in the database; no cut-off is given here.
What was measured:
[1] = target: Gamma-secretase; experiment: Modulation of gamma-secretase activity (unknown origin) assessed as amyloid-beta(1-42) production by ELISA; type: protein-complex assay, Homo sapiens
[2] = test system: Rattus norvegicus; experiment: Reduction of amyloid-beta peptides level in rat brain at 30 mg/kg, po; type: functional, organism-based

`COc1cc(Nc2nc3c(c(N(C)C)n2)C=CCOC3c2ccccc2)ccc1-n1cnc(Cl)c1` (stereo unspecified) was tested, and the IC50 [1] was 56 nM.
In the case of `COc1cc(Nc2nc3c(c(N(C)C)n2)C=CCNC3c2ccccc2)ccc1-n1cnc(Cl)c1` (stereo unspecified), the IC50 [1] is reported as 36 nM.
In the case of `CNc1nc(Nc2ccc(-n3cnc(Cl)c3)c(OC)c2)nc2c1C=CCN=C2c1ccccc1`, the inhibition [2] is reported as “Active” and the IC50 [1] is reported as 5 nM.
For `COc1cc(Nc2nc3c(c(N(C)C)n2)C=CCN=C3c2ccccc2)ccc1-n1cnc(Cl)c1`, the inhibition [2] was “Active” and the IC50 [1] was 21 nM.
